Source: patent US9326985B2, “Heteroaryl pyridone and aza-pyridone amide compounds” (Genentech, Inc., priority 2013, dated 2016)

System: CD69 by B lymphocytes in human whole blood activated with goat F(ab')2 anti-human IgM
Assay: CD69 Whole Blood Assay (CD69 Hu Blood FACS)
Assay type: cell-based
Conditions: Homo sapiens, Lymphocyte, Table 1, anti-IgM stimulation, CD69 positive of CD20 positive cells
Experimental: CD69 is a type II C-type lectin involved in lymphocyte migration and cytokine secretion.
Human blood is obtained from healthy volunteers, with the following restrictions: 1 week drug-free, non-smokers. Blood (approximately 20 mls to test 8 compounds) is collected by venipuncture into Vacutainer® (Becton, Dickinson and Co.) tubes with sodium heparin.
Solutions of Formula I compounds at 10 mM in DMSO are diluted 1:10 in 100% DMSO, then are diluted by three-fold serial dilutions in 100% DMSO for a ten point dose-response curve. The compounds are further diluted 1:10 in PBS and then an aliquot of 5.5 μl of each compound is added in duplicate to a 2 ml 96-well plate; 5.5 μl of 10% DMSO in PBS is added as control and no-stimulus wells. Human whole blood—HWB (100 μl) is added to each well. After mixing the plates are incubated at 37° C., 5% CO2, 100% humidity for 30 minutes. Goat F(ab′)2 anti-human IgM (10 μl of a 500 μg/ml solution, 50 μg/ml final) is added to each well (except the no-stimulus wells) with mixing and the plates are incubated for an additional 20 hours. At the end of the 20 hour incubation, samples are incubated with fluorescent labeled antibodies for 30 minutes, at 37° C., 5% CO2, 100% humidity. Include induced control, unstained and single stains for compensation adjustments and initial voltage settings. Samples are then lysed with PharM Lyse™ (BD Biosciences Pharmingen) according to the manufacturer's instructions. Samples are then transferred to a 96 well plate suitable to be run on the BD Biosciences HTS 96 well system on the LSRII machine. Data acquired and Mean Fluorescence Intensity values were obtained using BD Biosciences DIVA Software. Results are initially analyzed by FACS analysis software (Flow Jo).

Going from `Cn1cc(-c2ccnc(-n3ncc4cc(C(C)(C)C)cc(F)c4c3=O)c2CO)cc(NC(=O)C2CC2)c1=O` [Compound 125, N-[5-[2-(6-tert-butyl-8-fluoro-1-oxo-phthalazin-2-yl)-3-(hydroxymethyl)-4-pyridyl]-1-methyl-2-oxo-3-pyridyl]cyclopropanecarboxamide] to `Cn1cc(-c2ccnc(N3CCn4c(cc5c4CC(C)(C)C5)C3=O)c2CO)cc(NC(=O)[C@H]2C[C@H]2F)c1=O` [Compound 119, (1R,2R)—N-[5-[2-(7,7-dimethyl-4-oxo-1,2,6,8-tetrahydrocyclopenta[3,4]pyrrolo[3,5-b]pyrazin-3-yl)-3-(hydroxymethyl)-4-pyridyl]-1-methyl-2-oxo-3-pyridyl]-2-fluoro-cyclopropanecarboxamide], the IC50 rises from 0.0625 µM to 0.122 µM (2-fold). The first is the more potent here.

Work on `Cn1cc(-c2ccnc(N3CCn4c(cc5c4CC(C)(C)C5)C3=O)c2CO)cc(NC(=O)[C@@H]2C[C@@H]2F)c1=O` [Compound 120, (1S,2S)—N-[5-[2-(7,7-dimethyl-4-oxo-1,2,6,8-tetrahydrocyclopenta[3,4]pyrrolo[3,5-b]pyrazin-3-yl)-3-(hydroxymethyl)-4-pyridyl]-1-methyl-2-oxo-3-pyridyl]-2-fluoro-cyclopropanecarboxamide] yielded an IC50 of 0.0858 µM.

Same assay, conditions: Lymphocyte, Table 1, anti-IgM stimulation, CD69 positive of CD20 positive cells

First: Cn1cc(-c2ccnc(N3CCn4c(cc5c4CC(C)(C)C5)C3=O)c2CO)cc(NC(=O)CC2CC2)c1=O [Compound 103, 2-cyclopropyl-N-[5-[2-(7,7-dimethyl-4-oxo-1,2,6,8-tetrahydrocyclopenta[3,4]pyrrolo[3,5-b]pyrazin-3-yl)-3-(hydroxymethyl)-4-pyridyl]-1-methyl-2-oxo-3-pyridyl]acetamide]
Second: CCC(=O)Nc1cc(-c2ccnc(N3CCn4c(cc5c4CC(C)(C)C5)C3=O)c2CO)cn(C)c1=O [Compound 107, N-[5-[2-(7,7-dimethyl-4-oxo-1,2,6,8-tetrahydrocyclopenta[3,4]pyrrolo[3,5-b]pyrazin-3-yl)-3-(hydroxymethyl)-4-pyridyl]-1-methyl-2-oxo-3-pyridyl]propanamide]
The IC50 of the first is 3.1-fold higher: 4.9 µM for the first, 1.6 µM for the second. The second is the more potent here.

Going from `CC(=O)Nc1cc(-c2ccnc(N3CCn4c(cc5c4CC(C)(C)C5)C3=O)c2CO)cn(C)c1=O` [Compound 121, N-[5-[2-(7,7-dimethyl-4-oxo-1,2,6,8-tetrahydrocyclopenta[3,4]pyrrolo[3,5-b]pyrazin-3-yl)-3-(hydroxymethyl)-4-pyridyl]-1-methyl-2-oxo-3-pyridyl]acetamide] to `Cn1cc(-c2ccnc(N3CCn4c(cc5c4CC(C)(C)C5)C3=O)c2CO)cc(NC(=O)C2CCC2)c1=O` [Compound 101, N-[5-[2-(7,7-dimethyl-4-oxo-1,2,6,8-tetrahydrocyclopenta[3,4]pyrrolo[3,5-b]pyrazin-3-yl)-3-(hydroxymethyl)-4-pyridyl]-1-methyl-2-oxo-3-pyridyl]cyclobutanecarboxamide], the IC50 rises from 0.535 µM to 4.2 µM (7.9-fold). The first is the more potent here.

`Cn1cc(-c2ccnc(N3CCn4c(cc5c4CC(C)(C)C5)C3=O)c2CO)cc(NC(=O)c2cccnc2)c1=O` [Compound 109, N-[5-[2-(7,7-dimethyl-4-oxo-1,2,6,8-tetrahydrocyclopenta[3,4]pyrrolo[3,5-b]pyrazin-3-yl)-3-(hydroxymethyl)-4-pyridyl]-1-methyl-2-oxo-3-pyridyl]pyridine-3-carboxamide] was tested, and the IC50 was over 5.2 µM.

Same assay, conditions: Lymphocyte, Table 2, anti-IgM stimulation, CD69 positive of CD20 positive cells

`Cn1cc(-c2ccnc(N3CCn4c(cc5c4CC(C)(C)C5)C3=O)c2CO)cc(NC(=O)C2(O)CC2)c1=O` [Compound 135, N-[5-[2-(7,7-dimethyl-4-oxo-1,2,6,8-tetrahydrocyclopenta[3,4]pyrrolo[3,5-b]pyrazin-3-yl)-3-(hydroxymethyl)-4-pyridyl]-1-methyl-2-oxo-3-pyridyl]-1-hydroxy-cyclopropanecarboxamide] and `Cn1cc(-c2ccnc(N3CCn4c(cc5c4CC(C)(C)C5)C3=O)c2CO)cc(NC(=O)C2(F)CC2)c1=O` [Compound 134, N-[5-[2-(7,7-dimethyl-4-oxo-1,2,6,8-tetrahydrocyclopenta[3,4]pyrrolo[3,5-b]pyrazin-3-yl)-3-(hydroxymethyl)-4-pyridyl]-1-methyl-2-oxo-3-pyridyl]-1-fluoro-cyclopropanecarboxamide] cannot be ordered by IC50: over 3.4 µM for the first, 4.2 µM for the second.

Compared with `CCCC(=O)Nc1cc(-c2ccnc(N3CCn4c(cc5c4CC(C)(C)C5)C3=O)c2CO)cn(C)c1=O` [Compound 163, N-[5-[2-(7,7-dimethyl-4-oxo-1,2,6,8-tetrahydrocyclopenta[3,4]pyrrolo[3,5-b]pyrazin-3-yl)-3-(hydroxymethyl)-4-pyridyl]-1-methyl-2-oxo-3-pyridyl]butanamide], `COCC(=O)Nc1cc(-c2ccnc(N3CCn4c(cc5c4CC(C)(C)C5)C3=O)c2CO)cn(C)c1=O` [Compound 157, N-[5-[2-(7,7-dimethyl-4-oxo-1,2,6,8-tetrahydrocyclopenta[3,4]pyrrolo[3,5-b]pyrazin-3-yl)-3-(hydroxymethyl)-4-pyridyl]-1-methyl-2-oxo-3-pyridyl]-2-methoxy-acetamide] is higher in IC50: 1.9 µM for the first, over 4.4 µM for the second.

`Cn1cc(-c2ccnc(N3CCc4c(cc5n4CCCC5)C3=O)c2CO)cc(NC(=O)C2CC2)c1=O` [Compound 133, N-[5-[3-(hydroxymethyl)-2-(1-oxo-3,4,6,7,8,9-hexahydropyrido[3,4-b]indolizin-2-yl)-4-pyridyl]-1-methyl-2-oxo-3-pyridyl]cyclopropanecarboxamide] and `Cn1cc(-c2ccnc(N3CCn4c(cc5c4CC(C)(C)C5)C3=O)c2CO)cc(NC(=O)[C@@H]2CCCO2)c1=O` (stereo in doubt) [Compound 149, (2S)—N-[5-[2-(7,7-dimethyl-4-oxo-1,2,6,8-tetrahydrocyclopenta[3,4]pyrrolo[3,5-b]pyrazin-3-yl)-3-(hydroxymethyl)-4-pyridyl]-1-methyl-2-oxo-3-pyridyl]tetrahydrofuran-2-carboxamide] cannot be ordered by IC50: over 4.3 µM for the first, over 6.3 µM for the second.

Compound `Cn1cc(-c2ccnc(N3CCn4c(cc5c4CC(C)(C)C5)C3=O)c2CO)cc(NC(=O)[C@H]2CCCO2)c1=O` (stereo in doubt) [Compound 148, (2R)—N-[5-[2-(7,7-dimethyl-4-oxo-1,2,6,8-tetrahydrocyclopenta[3,4]pyrrolo[3,5-b]pyrazin-3-yl)-3-(hydroxymethyl)-4-pyridyl]-1-methyl-2-oxo-3-pyridyl]tetrahydrofuran-2-carboxamide] has an IC50 of over 6.1 µM.

Same assay, conditions: Table 1, anti-IgM stimulation, CD69 positive of CD20 positive cells

With `Cn1cc(-c2ccnc(N3CCn4c(cc5c4CC(C)(C)C5)C3=O)c2CO)cc(NC(=O)C2CC2F)c1=O` (centres unmarked) [Compound 118, N-[5-[2-(7,7-dimethyl-4-oxo-1,2,6,8-tetrahydrocyclopenta[3,4]pyrrolo[3,5-b]pyrazin-3-yl)-3-(hydroxymethyl)-4-pyridyl]-1-methyl-2-oxo-3-pyridyl]-2-fluoro-cyclopropanecarboxamide] the IC50 was 0.219 µM.
Compound `Cn1cc(-c2ccnc(N3CCn4c(cc5c4CC(C)(C)C5)C3=O)c2CO)cc(NC(=O)C2CC2F)c1=O` (centres unmarked) [Compound 117, N-[5-[2-(7,7-dimethyl-4-oxo-1,2,6,8-tetrahydrocyclopenta[3,4]pyrrolo[3,5-b]pyrazin-3-yl)-3-(hydroxymethyl)-4-pyridyl]-1-methyl-2-oxo-3-pyridyl]-2-fluoro-cyclopropanecarboxamide] has an IC50 of 0.567 µM.
